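Grown in 96-well plates, cells were treated for 48 hours with each compound at five concentrations. Insufficient inhibition: endpoint recorded as highest concentration tested. At the GI50, growth is halved. Definition used: TGI = concentration required for complete inhibition of growth.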
How the values were obtained:
Experiment in all cases: NCI-60 cell line screen, 48 h
786-0 renal = test system: 786-0 renal
A498 renal = test system: A498 renal
A549 NSCLC = test system: A549 NSCLC
ACHN renal = test system: ACHN renal
BT-549 breast = test system: BT-549 breast
CAKI-1 renal = test system: CAKI-1 renal
CCRF-CEM leukemia = test system: CCRF-CEM leukemia
COLO 205 colon = test system: COLO 205 colon
DU-145 prostate = test system: DU-145 prostate
EKVX NSCLC = test system: EKVX NSCLC
HCC-2998 colon = test system: HCC-2998 colon
HCT-116 colon = test system: HCT-116 colon
HCT-15 colon = test system: HCT-15 colon
HL-60(TB) leukemia = test system: HL-60(TB) leukemia
HOP-62 NSCLC = test system: HOP-62 NSCLC
HOP-92 NSCLC = test system: HOP-92 NSCLC
HS 578T breast = test system: HS 578T breast
HT29 colon = test system: HT29 colon
IGROV1 ovarian = test system: IGROV1 ovarian
K-562 leukemia = test system: K-562 leukemia
KM12 colon = test system: KM12 colon
LOX IMVI melanoma = test system: LOX IMVI melanoma
M14 melanoma = test system: M14 melanoma
MALME-3M melanoma = test system: MALME-3M melanoma
MCF7 breast = test system: MCF7 breast
MDA-MB-435 = test system: MDA-MB-435
MDA-MB-468 breast = test system: MDA-MB-468 breast
MOLT-4 leukemia = test system: MOLT-4 leukemia
NCI-H226 lung = test system: NCI-H226 lung
NCI-H23 lung = test system: NCI-H23 lung
NCI-H460 lung = test system: NCI-H460 lung
NCI-H522 lung = test system: NCI-H522 lung
NCI/ADR-RES ovarian = test system: NCI/ADR-RES ovarian
OVCAR-3 ovarian = test system: OVCAR-3 ovarian
OVCAR-4 ovarian = test system: OVCAR-4 ovarian
OVCAR-5 ovarian = test system: OVCAR-5 ovarian
OVCAR-8 ovarian = test system: OVCAR-8 ovarian
PC-3 prostate = test system: PC-3 prostate
RPMI-8226 leukemia = test system: RPMI-8226 leukemia
RXF 393 renal = test system: RXF 393 renal
SF-268 CNS = test system: SF-268 CNS
SF-295 CNS = test system: SF-295 CNS
SF-539 CNS = test system: SF-539 CNS
SK-MEL-28 melanoma = test system: SK-MEL-28 melanoma
SK-MEL-5 melanoma = test system: SK-MEL-5 melanoma
SK-OV-3 ovarian = test system: SK-OV-3 ovarian
SN12C renal = test system: SN12C renal
SNB-19 CNS = test system: SNB-19 CNS
SR leukemia = test system: SR leukemia
SW-620 colon = test system: SW-620 colon
T-47D breast = test system: T-47D breast
TK-10 renal = test system: TK-10 renal
U251 CNS = test system: U251 CNS
UACC-257 melanoma = test system: UACC-257 melanoma
UACC-62 melanoma = test system: UACC-62 melanoma

CS(=O)(=O)Nc1ccc(-c2ccc3c(c2)ncn3-c2ccc(NC(=O)Nc3ccc(Cl)c(C(F)(F)F)c3)cc2)cc1
GI50 (786-0 renal): 1.87 µM
TGI (786-0 renal): 4.42 µM
GI50 (A498 renal): 2.42 µM
TGI (A498 renal): 7.41 µM
GI50 (A549 NSCLC): 3 µM
TGI (A549 NSCLC): 10.8 µM
GI50 (ACHN renal): 2.72 µM
TGI (ACHN renal): 9.66 µM
GI50 (BT-549 breast): 2.99 µM
TGI (BT-549 breast): 7.17 µM
GI50 (CAKI-1 renal): 4.73 µM
TGI (CAKI-1 renal): 20.9 µM
GI50 (CCRF-CEM leukemia): 2.72 µM
TGI (CCRF-CEM leukemia): 8.84 µM
GI50 (COLO 205 colon): 2.05 µM
TGI (COLO 205 colon): 5.15 µM
GI50 (DU-145 prostate): 3.84 µM
TGI (DU-145 prostate): 17.1 µM
GI50 (EKVX NSCLC): 2.89 µM
TGI (EKVX NSCLC): 10.2 µM
GI50 (HCC-2998 colon): 4.32 µM
TGI (HCC-2998 colon): 14.7 µM
GI50 (HCT-116 colon): 2.9 µM
TGI (HCT-116 colon): 9.97 µM
GI50 (HCT-15 colon): 2.73 µM
TGI (HCT-15 colon): 10.1 µM
GI50 (HL-60(TB) leukemia): 1.79 µM
TGI (HL-60(TB) leukemia): 4.02 µM
GI50 (HOP-62 NSCLC): 2.06 µM
TGI (HOP-62 NSCLC): 4.96 µM
GI50 (HOP-92 NSCLC): 3.41 µM
TGI (HOP-92 NSCLC): 8.67 µM
GI50 (HS 578T breast): 2.14 µM
TGI (HS 578T breast): 6.46 µM
GI50 (HT29 colon): 2.95 µM
TGI (HT29 colon): 10.8 µM
GI50 (IGROV1 ovarian): 3.24 µM
TGI (IGROV1 ovarian): 11.5 µM
GI50 (K-562 leukemia): 1.95 µM
TGI (K-562 leukemia): 5.48 µM
GI50 (KM12 colon): 0.38 µM
TGI (KM12 colon): 9.59 µM
GI50 (LOX IMVI melanoma): 2.63 µM
TGI (LOX IMVI melanoma): 7.31 µM
GI50 (M14 melanoma): 2.38 µM
TGI (M14 melanoma): 9.11 µM
GI50 (MALME-3M melanoma): 2.1 µM
TGI (MALME-3M melanoma): 5.58 µM
GI50 (MCF7 breast): 1.86 µM
TGI (MCF7 breast): 5.04 µM
GI50 (MDA-MB-435): 2.97 µM
TGI (MDA-MB-435): 12.4 µM
GI50 (MDA-MB-468 breast): 2.43 µM
TGI (MDA-MB-468 breast): 7.78 µM
GI50 (MOLT-4 leukemia): 1.72 µM
TGI (MOLT-4 leukemia): 5.05 µM
GI50 (NCI-H226 lung): 3.05 µM
TGI (NCI-H226 lung): 11.8 µM
GI50 (NCI-H23 lung): 2.42 µM
TGI (NCI-H23 lung): 7.92 µM
GI50 (NCI-H460 lung): 2.64 µM
TGI (NCI-H460 lung): 9.49 µM
GI50 (NCI-H522 lung): 2.33 µM
TGI (NCI-H522 lung): 8.12 µM
GI50 (NCI/ADR-RES ovarian): 5.19 µM
TGI (NCI/ADR-RES ovarian): 24.8 µM
GI50 (OVCAR-3 ovarian): 3.17 µM
TGI (OVCAR-3 ovarian): 10.6 µM
GI50 (OVCAR-4 ovarian): 4.05 µM
TGI (OVCAR-4 ovarian): 21.1 µM
GI50 (OVCAR-5 ovarian): 3.03 µM
TGI (OVCAR-5 ovarian): 11.1 µM
GI50 (OVCAR-8 ovarian): 2.38 µM
TGI (OVCAR-8 ovarian): 6.87 µM
GI50 (PC-3 prostate): 2.81 µM
TGI (PC-3 prostate): 10.3 µM
GI50 (RPMI-8226 leukemia): 1.9 µM
TGI (RPMI-8226 leukemia): 5.16 µM
GI50 (RXF 393 renal): 1.05 µM
TGI (RXF 393 renal): 3.83 µM
GI50 (SF-268 CNS): 3.42 µM
TGI (SF-268 CNS): 15.4 µM
GI50 (SF-295 CNS): 1.54 µM
TGI (SF-295 CNS): 3.21 µM
GI50 (SF-539 CNS): 1.56 µM
TGI (SF-539 CNS): 6.52 µM
GI50 (SK-MEL-28 melanoma): 2.53 µM
TGI (SK-MEL-28 melanoma): 10.3 µM
GI50 (SK-MEL-5 melanoma): 1.85 µM
TGI (SK-MEL-5 melanoma): 3.87 µM
GI50 (SK-OV-3 ovarian): 2.84 µM
TGI (SK-OV-3 ovarian): 9.55 µM
GI50 (SN12C renal): 2.99 µM
TGI (SN12C renal): 11.2 µM
GI50 (SNB-19 CNS): 3.23 µM
TGI (SNB-19 CNS): 12 µM
GI50 (SR leukemia): 1.61 µM
TGI (SR leukemia): 3.71 µM
GI50 (SW-620 colon): 2.97 µM
TGI (SW-620 colon): 12.8 µM
GI50 (T-47D breast): 2.69 µM
TGI (T-47D breast): 12.2 µM
GI50 (TK-10 renal): 3.83 µM
TGI (TK-10 renal): 13.5 µM
GI50 (U251 CNS): 2.49 µM
TGI (U251 CNS): 10.8 µM
GI50 (UACC-257 melanoma): 2.43 µM
TGI (UACC-257 melanoma): 6.85 µM
GI50 (UACC-62 melanoma): 1.91 µM
TGI (UACC-62 melanoma): 4.23 µM
